Data set [1] is filed under the species Rattus norvegicus. As to the kind of experiment: Efficacy was tested in a rat microdialysis assay where ACh release levels were measured. Type of data set: functional.
Data set [2] deals with T1, Muscarinic acetylcholine receptor M2 (Rattus norvegicus, UniProt P10980).
T1 sequence (P10980 whole entry): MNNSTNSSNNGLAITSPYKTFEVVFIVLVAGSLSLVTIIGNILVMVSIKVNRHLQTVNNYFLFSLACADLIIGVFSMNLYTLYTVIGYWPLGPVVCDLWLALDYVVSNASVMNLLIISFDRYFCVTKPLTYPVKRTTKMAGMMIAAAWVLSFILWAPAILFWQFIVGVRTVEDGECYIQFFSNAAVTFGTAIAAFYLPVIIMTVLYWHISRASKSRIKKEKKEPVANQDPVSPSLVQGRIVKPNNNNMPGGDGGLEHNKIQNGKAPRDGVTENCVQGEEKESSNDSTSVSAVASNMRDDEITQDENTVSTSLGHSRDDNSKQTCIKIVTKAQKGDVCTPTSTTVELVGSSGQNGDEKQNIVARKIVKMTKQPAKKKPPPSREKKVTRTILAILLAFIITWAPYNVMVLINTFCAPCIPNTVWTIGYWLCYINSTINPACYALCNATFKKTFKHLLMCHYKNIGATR
Put plainly: Binding affinity towards Muscarinic acetylcholine receptor M2.

The target of data set [3] is Muscarinic receptor M1 and M2 (Rattus norvegicus) (UniProt P08482+P10980). As to the kind of experiment: Ratio of binding affinity of muscarinic M1 receptor to muscarinic M2 receptor. Type of data set: protein assay.
Chain of Muscarinic receptor M1 and M2 (Rattus norvegicus) (P08482 whole entry, looked up, one chain of several): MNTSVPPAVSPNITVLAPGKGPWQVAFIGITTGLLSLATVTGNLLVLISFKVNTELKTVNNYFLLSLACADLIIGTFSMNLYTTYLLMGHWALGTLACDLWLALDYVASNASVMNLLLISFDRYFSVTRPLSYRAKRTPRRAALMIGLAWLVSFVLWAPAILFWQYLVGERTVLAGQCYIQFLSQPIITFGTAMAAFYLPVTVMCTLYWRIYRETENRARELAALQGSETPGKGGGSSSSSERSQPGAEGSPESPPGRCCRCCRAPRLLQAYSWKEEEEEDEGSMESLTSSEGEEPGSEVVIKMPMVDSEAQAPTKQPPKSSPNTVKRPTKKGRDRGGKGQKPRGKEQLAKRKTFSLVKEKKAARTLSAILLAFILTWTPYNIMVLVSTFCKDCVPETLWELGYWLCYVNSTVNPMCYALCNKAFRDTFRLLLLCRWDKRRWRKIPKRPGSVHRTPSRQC
The target in data set [4] is Muscarinic receptor M2 and M3 (Rattus norvegicus) (UniProt P08483+P10980). Put plainly: Ratio of binding affinity for muscarinic M3 receptor to muscarinic M2 receptor. The class given is protein assay.
Chain of Muscarinic receptor M2 and M3 (Rattus norvegicus) (P08483 whole entry, looked up, one chain of several): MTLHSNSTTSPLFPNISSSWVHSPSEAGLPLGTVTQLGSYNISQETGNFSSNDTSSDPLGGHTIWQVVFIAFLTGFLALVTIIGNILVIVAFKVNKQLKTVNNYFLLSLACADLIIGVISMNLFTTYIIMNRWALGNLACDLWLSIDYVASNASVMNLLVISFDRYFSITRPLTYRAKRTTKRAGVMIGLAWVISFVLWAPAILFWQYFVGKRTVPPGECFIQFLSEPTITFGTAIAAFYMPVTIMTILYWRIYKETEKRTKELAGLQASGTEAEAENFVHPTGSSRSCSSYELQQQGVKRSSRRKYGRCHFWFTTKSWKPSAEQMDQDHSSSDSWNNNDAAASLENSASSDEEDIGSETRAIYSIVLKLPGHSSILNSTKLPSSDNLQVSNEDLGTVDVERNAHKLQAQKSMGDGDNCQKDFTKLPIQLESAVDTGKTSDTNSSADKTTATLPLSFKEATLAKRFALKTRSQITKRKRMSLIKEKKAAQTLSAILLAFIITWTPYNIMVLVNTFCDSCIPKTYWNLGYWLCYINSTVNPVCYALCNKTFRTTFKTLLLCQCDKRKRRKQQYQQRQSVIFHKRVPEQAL
Data set [5] deals with Rattus norvegicus. As to the kind of experiment: Effect of compound on heart rate in rats at 1 mg/kg was determined; Not effected. The class given is functional, organism-based. The arrangement: dose 1 mg/kg.
Data set [6] relates to Rattus norvegicus. As to the kind of experiment: Effect of compound on heart rate in rats at 3 and 10 mg/kg was determined; Increase. Type of data set: functional, organism-based. The arrangement: dose 10 mg/kg.
The nature of data set [7]: Area under curve was determined.
A short description of data set [8]: Oral bioavailability in cynomolgus monkeys was determined; Acceptable. The note with it: cynomolgus monkey, in vivo. The class given is ADME, organism-based, Macaca fascicularis.
Data set [9] in a line: Oral bioavailability in rats was determined; High. The class given is ADME, organism-based. The note with it: rat, in vivo.
For data set [10], the system named is Rattus norvegicus. As to the kind of experiment: Compound was tested for activity in rat passive avoidance response (PAR) experiment, pretreatment time 1 hr with oral dose ranging from 0.001 to 0.1 mg/kg; Active. The class given is functional, organism-based.

Calls of active or inactive are those of the source. The calls are words filed in the database; no cut-off is given here.

In general, Ki refers to a measure of affinity in units of concentration, obtained from inhibition or displacement. `COc1ccc(S(=O)(=O)c2ccc(C3(C4CCN(C5CCN(C(=O)c6cccc(N)c6Cl)CC5)CC4)OCCO3)cc2)cc1` registered an Acetylcholine release in the data set listed under Rattus norvegicus [1] of 135%. For the same compound, the affinity in data set [2] corresponds to a Ki of 0.53 nM.

`COc1ccc(S(=O)(=O)c2ccc(C3(C4CCN(C5CCN(C(=O)c6c(Cl)cccc6Cl)CC5)CC4)OCCO3)cc2)cc1`: in [2], the Ki worked out at 2.3 nM.

Consider `COc1ccc(S(=O)(=O)c2ccc(C3(C4CCN(C5CCN(C(=O)c6ccccc6Cl)CC5)CC4)OCCO3)cc2)cc1`, for which the Ki in data set [2] was found to be 1.6 nM.

Compound `COc1ccc(S(=O)(=O)c2ccc(C3(C4CCN(C5CCN(C(=O)c6cccc(Cl)c6N)CC5)CC4)OCCO3)cc2)cc1` gave a Ki in [2] of 1.1 nM.

For `COc1ccc([S+]([O-])c2ccc(C3(C4CCN(C5CCN(C(=O)c6ccccc6C)CC5)CC4)OCCO3)cc2)cc1` (configuration not stated), the figures for the Ratio in data set [3] and in data set [4] were 146 and 35, respectively. Besides, the affinity in [2], expressed as Ki, was 2.5 nM.

In data set [2], `COc1ccc(S(=O)(=O)c2ccc(C3(C4CCN(C5CCN(C(=O)c6cc(F)ccc6N)CC5)CC4)OCCO3)cc2)cc1` yielded a Ki of 0.68 nM.

Turning to `COc1ccc(S(=O)(=O)c2ccc(C3(C4CCN(C5CCN(C(=O)c6cccc(Cl)c6C)CC5)CC4)OCCO3)cc2)cc1`, in data set [3], the Ratio amounted to 42. Besides, the affinity in data set [2] corresponds to a Ki of 0.72 nM.

For `COc1ccc(S(=O)(=O)c2ccc(C3(C4CCN(C5CCN(C(=O)c6ccccc6C(F)(F)F)CC5)CC4)OCCO3)cc2)cc1`, in [2], the affinity, expressed as Ki, was 1 nM.

Turning to `COc1ccc(S(=O)(=O)c2ccc(C3(C4CCN(C5CCN(C(=O)c6ccccc6C)CC5)CC4)OCCO3)cc2)cc1`, the Ki in data set [2] is 0.54 nM.

On to `COc1ccc(S(=O)(=O)c2ccc(C3(C4CCN(C5CCN(C(=O)c6ccccc6Br)CC5)CC4)OCCO3)cc2)cc1`, for which the affinity in data set [2] corresponds to a Ki of 1.8 nM.

The AUC is the area under the concentration-time curve, a measure of exposure. A high value points to high exposure. Broadly, the bioavailability is dose-corrected exposure relative to a reference, in per cent. High values mean good availability, low ones poor availability. Regarding `COc1ccc(S(=O)(=O)c2ccc(C3(C4CCN(C5CCN(C(=O)c6cccc(C)c6N)CC5)CC4)OCCO3)cc2)cc1`, in the data set with Rattus norvegicus [5], the Heart rate entry is “inactive”. This compound showed an Acetylcholine release in the data set filed under Rattus norvegicus [1] of 194%. Also, the Heart rate result with Rattus norvegicus [6] was “Increased heart rate”. Further, the area under the curve (AUC) in [7] amounted to 1570 ng·h/mL. In addition, the bioavailability in [8] worked out at 15%; in data set [9] it was 80%. The Ki in data set [2] came to 0.39 nM. The outcome with Rattus norvegicus [10] was Active.

As to `CNc1ccccc1C(=O)N1CCC(N2CCC(C3(c4ccc(S(=O)(=O)c5ccc(OC)cc5)cc4)OCCO3)CC2)CC1`, the Ki in data set [2] came to 0.9 nM.

For the compound `COc1ccc(S(=O)(=O)c2ccc(C3(C4CCN(C5CCN(C(=O)c6ccccc6C)CC5)CC4)O[C@H](C)[C@@H](C)O3)cc2)cc1`, the Ratio in data set [3] turned out to be 32. This compound also displayed a Ki in [2] of 18 nM.

Consider `COc1ccc(S(=O)(=O)c2ccc(C3(C4CCN(C5CCN(C(=O)c6ccccc6N)CC5)CC4)OCCO3)cc2)cc1`, for which the inhibition constant Ki in [2] is 1.5 nM.

Turning to `COc1ccc(S(=O)(=O)c2ccc(C3(C4CCN(C5CCN(C(=O)c6ccccc6F)CC5)CC4)OCCO3)cc2)cc1`, the Ratio in data set [3] was 49; in data set [4], 8. The inhibition constant (Ki) in data set [2] was 4.8 nM.

For `COc1ccc(S(=O)(=O)c2ccc(C3(C4CCN(C5CCN(C(=O)c6ccc(F)c7ccccc67)CC5)CC4)OCCO3)cc2)cc1`, in the data set listed under Rattus norvegicus [1], the Acetylcholine release is listed as 180%.

In the case of `COc1ccc(S(=O)(=O)c2ccc(C3(C4CCN(C5CCN(C(=O)c6cccc(C)c6C)CC5)CC4)OCCO3)cc2)cc1`, the Ratio in data set [3] is 66; in data set [4], 40. The compound also displayed a Ki in [2] of 1.4 nM.

`COc1ccc(S(=O)(=O)c2ccc(C3(C4CCN(C5CCN(C(=O)c6cccc(N)c6C)CC5)CC4)OCCO3)cc2)cc1` came in with a Ki in [2] of 0.4 nM.

In [2], `COc1ccc(S(=O)(=O)c2ccc(C3(C4CCN(C5CCN(C(=O)c6ccccc6OC)CC5)CC4)OCCO3)cc2)cc1` had an inhibition constant (Ki) of 1.2 nM.

For `COc1ccc(S(=O)(=O)c2ccc(C3(C4CCN(C5CCN(C(=O)c6ccccc6C)CC5)CC4)SCCS3)cc2)cc1`, the figures for the Ratio in data set [3] and in data set [4] were 89 and 15, respectively. For the same compound, the inhibition constant Ki in data set [2] stood at 0.86 nM.

In the case of `Cc1ccccc1C(=O)N1CCC(N2CCC(C3(c4ccc(S(=O)(=O)c5ccc6c(c5)OCO6)cc4)OCCO3)CC2)CC1`, the values for the Ratio in data set [3] and in data set [4] were 28 and 8, respectively. For the same compound, in data set [2], the affinity corresponds to a Ki of 0.065 nM.

`COc1ccc(S(=O)(=O)c2ccc(C3(C4CCN(C5CCN(C(=O)c6cc(N)ccc6Cl)CC5)CC4)OCCO3)cc2)cc1` gave an inhibition constant (Ki) in [2] of 0.53 nM.

In [2], `COc1ccc(S(=O)(=O)c2ccc(C3(C4CCN(C5CCN(C(=O)c6cccc(N)c6)CC5)CC4)OCCO3)cc2)cc1` came in with an inhibition constant Ki of 0.78 nM.

Take `COc1ccc([S+]([O-])c2ccc(C3(C4CCN(C5CCN(C(=O)c6ccccc6C)CC5)CC4)O[C@H](C)[C@@H](C)O3)cc2)cc1` (some centres not stated): the Ratio in [3] worked out at 14. The Ki in data set [2] was found to be 51 nM.

With `COc1ccc(S(=O)(=O)c2ccc(C3(C4CCN(C5CCN(C(=O)c6ccc(F)cc6N)CC5)CC4)OCCO3)cc2)cc1`, the affinity in data set [2], expressed as Ki, was 0.44 nM.

In data set [2], `COc1ccc(S(=O)(=O)c2ccc(C3(C4CCN(C5CCN(C(=O)c6cccc(F)c6N)CC5)CC4)OCCO3)cc2)cc1` had a Ki of 0.51 nM.

Values taken from ChEMBL document CHEMBL1134995, “Enhancement of pharmacokinetic properties and in vivo efficacy of benzylidene ketal M(2) muscarinic receptor antagonists via benzamide modification” (Bioorg Med Chem Lett, 2002).
